# System: rice
# Assay: Low temperature assay on rice seedlings
# Assay type: in vivo
# Experimental: According to a low temperature assay, we measured parameters including plant height, number of leaf, area of leaf, number of tiller, weight of root at low temperature to completely determine effects of the natural brassinolide analogues on the resistance to low temperature of a plant.
# The natural brassinolide analogues, BR1, BR2, BR3, BR4, BR5 and BR6, used herein, were those prepared by the method of Example 1. Respectively the analogues were dissolved into 95% (V/V) ethanol solution, and then diluted with pure water to 1 mg/L, 0.1 mg/L, 0.01 mg/L, 0.001 mg/L and 0.0001 mg/L. In addition, pure water was used as a control.
# After rice seeds were disinfected by using 5% sodium hypochlorite solution treatment, they were rinsed with distilled water until their pH>7, placed into a petri dish in a dark incubator, and cultured by using water at 30° C.±2° C. for 9 days. Then respectively the nine-day-old etiolated seedlings of rice were immersed in the above solutions containing different concentrations of the natural brassinolide analogues or pure water, and cultured at the temperature of 1° C., 2° C., 3° C., 4° C. and 5° C. for 24 hr. The parameters including plant height, area of leaf and weight of root after 3, 6, 9 and 12 days and number of leaf and number of tiller after 12 days were measured.
smiles,measurement,setting,value
CC(C)(O)CC[C@@H](O)[C@](C)(O)[C@H]1CC[C@@]2(O)[C@@H]3CC(=O)[C@@H]4C[C@@H](O)[C@@H](O)C[C@]4(C)[C@H]3CC[C@]12C [BR6],Area of leaf,"0.001 mg/l, 2 °C, 6 days",11.8 cm^2
same,Height,"0.001 mg/l, 2 °C, 6 days",7.1 cm
same,Weight of root,"0.001 mg/l, 2 °C, 6 days",3.0 g
same,Area of leaf,"0.001 mg/l, 2 °C, 9 days",12.7 cm^2
same,Height,"0.001 mg/l, 2 °C, 9 days",7.2 cm
same,Weight of root,"0.001 mg/l, 2 °C, 9 days",3.2 g
same,Area of leaf,"0.001 mg/l, 2 °C, 12 days",13.1 cm^2
same,Height,"0.001 mg/l, 2 °C, 12 days",7.3 cm
same,Number of leaf,"0.001 mg/l, 2 °C, 12 days",3
same,Number of tiller,"0.001 mg/l, 2 °C, 12 days",3
same,Weight of root,"0.001 mg/l, 2 °C, 12 days",3.9 g
same,Area of leaf,"0.001 mg/l, 3 °C, 3 days",10.4 cm^2
same,Height,"0.001 mg/l, 3 °C, 3 days",7 cm
same,Weight of root,"0.001 mg/l, 3 °C, 3 days",2.5 g
same,Area of leaf,"0.001 mg/l, 3 °C, 6 days",12 cm^2
same,Height,"0.001 mg/l, 3 °C, 6 days",7.1 cm
same,Weight of root,"0.001 mg/l, 3 °C, 6 days",2.6 g
same,Area of leaf,"0.001 mg/l, 3 °C, 9 days",12.6 cm^2
same,Height,"0.001 mg/l, 3 °C, 9 days",7.4 cm
same,Weight of root,"0.001 mg/l, 3 °C, 9 days",2.9 g
same,Area of leaf,"0.001 mg/l, 3 °C, 12 days",13.2 cm^2
same,Height,"0.001 mg/l, 3 °C, 12 days",7.4 cm
same,Number of leaf,"0.001 mg/l, 3 °C, 12 days",3
same,Number of tiller,"0.001 mg/l, 3 °C, 12 days",2
same,Weight of root,"0.001 mg/l, 3 °C, 12 days",2.9 g
same,Area of leaf,"0.001 mg/l, 4 °C, 3 days",10.6 cm^2
same,Height,"0.001 mg/l, 4 °C, 3 days",7.1 cm
same,Weight of root,"0.001 mg/l, 4 °C, 3 days",2.5 g
same,Area of leaf,"0.001 mg/l, 4 °C, 6 days",12.4 cm^2
same,Height,"0.001 mg/l, 4 °C, 6 days",7.3 cm
same,Weight of root,"0.001 mg/l, 4 °C, 6 days",2.6 g
same,Area of leaf,"0.001 mg/l, 4 °C, 9 days",13.1 cm^2
same,Height,"0.001 mg/l, 4 °C, 9 days",7.5 cm
same,Weight of root,"0.001 mg/l, 4 °C, 9 days",2.9 g
same,Area of leaf,"0.001 mg/l, 4 °C, 12 days",13.5 cm^2
same,Height,"0.001 mg/l, 4 °C, 12 days",7.7 cm
same,Number of leaf,"0.001 mg/l, 4 °C, 12 days",3
same,Number of tiller,"0.001 mg/l, 4 °C, 12 days",2
same,Weight of root,"0.001 mg/l, 4 °C, 12 days",2.9 g
same,Area of leaf,"0.001 mg/l, 5 °C, 3 days",10.7 cm^2
same,Height,"0.001 mg/l, 5 °C, 3 days",7.5 cm
same,Weight of root,"0.001 mg/l, 5 °C, 3 days",2.8 g
same,Area of leaf,"0.001 mg/l, 5 °C, 6 days",14.6 cm^2
same,Height,"0.001 mg/l, 5 °C, 6 days",7.8 cm
same,Weight of root,"0.001 mg/l, 5 °C, 6 days",2.7 g
same,Area of leaf,"0.001 mg/l, 5 °C, 9 days",16 cm^2
same,Height,"0.001 mg/l, 5 °C, 9 days",7.9 cm
same,Weight of root,"0.001 mg/l, 5 °C, 9 days",3.0 g
same,Area of leaf,"0.001 mg/l, 5 °C, 12 days",17 cm^2
same,Height,"0.001 mg/l, 5 °C, 12 days",8.2 cm
same,Number of leaf,"0.001 mg/l, 5 °C, 12 days",3
same,Number of tiller,"0.001 mg/l, 5 °C, 12 days",3
same,Weight of root,"0.001 mg/l, 5 °C, 12 days",3.7 g
same,Area of leaf,"0.01 mg/l, 1 °C, 3 days",10 cm^2
same,Height,"0.01 mg/l, 1 °C, 3 days",7.0 cm
same,Weight of root,"0.01 mg/l, 1 °C, 3 days",2.8 g
same,Area of leaf,"0.01 mg/l, 1 °C, 6 days",11.9 cm^2
same,Height,"0.01 mg/l, 1 °C, 6 days",7.2 cm
same,Weight of root,"0.01 mg/l, 1 °C, 6 days",3.0 g
same,Area of leaf,"0.01 mg/l, 1 °C, 9 days",12.9 cm^2
same,Height,"0.01 mg/l, 1 °C, 9 days",7.3 cm
same,Weight of root,"0.01 mg/l, 1 °C, 9 days",3.4 g
same,Area of leaf,"0.01 mg/l, 1 °C, 12 days",13.6 cm^2
same,Height,"0.01 mg/l, 1 °C, 12 days",7.4 cm
same,Number of leaf,"0.01 mg/l, 1 °C, 12 days",3
same,Number of tiller,"0.01 mg/l, 1 °C, 12 days",3
same,Weight of root,"0.01 mg/l, 1 °C, 12 days",3.9 g
same,Area of leaf,"0.01 mg/l, 2 °C, 3 days",10.6 cm^2
same,Height,"0.01 mg/l, 2 °C, 3 days",7.0 cm
same,Weight of root,"0.01 mg/l, 2 °C, 3 days",2.8 g
same,Area of leaf,"0.01 mg/l, 2 °C, 6 days",11.8 cm^2
same,Height,"0.01 mg/l, 2 °C, 6 days",7.2 cm
same,Weight of root,"0.01 mg/l, 2 °C, 6 days",3.0 g
same,Area of leaf,"0.01 mg/l, 2 °C, 9 days",12.8 cm^2
same,Height,"0.01 mg/l, 2 °C, 9 days",7.3 cm
same,Weight of root,"0.01 mg/l, 2 °C, 9 days",3.1 g
same,Area of leaf,"0.01 mg/l, 2 °C, 12 days",13.4 cm^2
same,Height,"0.01 mg/l, 2 °C, 12 days",7.5 cm
same,Number of leaf,"0.01 mg/l, 2 °C, 12 days",3
same,Number of tiller,"0.01 mg/l, 2 °C, 12 days",3
same,Weight of root,"0.01 mg/l, 2 °C, 12 days",3.2 g
same,Area of leaf,"0.01 mg/l, 3 °C, 3 days",10.4 cm^2
same,Height,"0.01 mg/l, 3 °C, 3 days",7 cm
same,Weight of root,"0.01 mg/l, 3 °C, 3 days",2.5 g
same,Area of leaf,"0.01 mg/l, 3 °C, 6 days",12 cm^2
same,Height,"0.01 mg/l, 3 °C, 6 days",7.2 cm
same,Weight of root,"0.01 mg/l, 3 °C, 6 days",2.6 g
same,Area of leaf,"0.01 mg/l, 3 °C, 9 days",12.6 cm^2

# Reference: US9326506B2, “Preparation method, agricultural composition and applications of natural brassinolide analogs” (CHENGDU NEWSUN CROPSCIENCE CO., LTD, priority 2012, dated 2016)
